Patent publication US4353904A, “Phenylpiperazine derivatives of 1,3,4-oxadiazolylphenols, and therapeutic agents containing these compounds” (BASF Aktiengesellschaft, priority 1980, dated 1982)

Tests used:
[1] = Acute toxicity, intraperitoneal administration; details: in vivo, ip, mouse, groups of 10 female NMRI mice, read-out: Toxicity LD 50
Method: In addition to the hypotensive action, the acute toxicity (LD 50, mg/kg), for intraperitoneal administration, was determined for groups of 10 female NMRI mice, weighing 22-27 g.
^(3) Mouse. Intraperitoneal

blood pressure = experiment: Hypotensive action in rats under urethane narcosis (carotid artery blood pressure, intravenous administration); assay type: in vivo, male Sprague-Dawley rats; details: rat; for ED20: iv, urethane narcosis 1.78 g/kg i.p., compound i.v. into jugular vein, read-out: Hypotensive action ED 20% (dose which caused a 20% reduction in blood pressure); for Hypotensive action R.A. (relative activity, Urapidil = 1.00): urethane narcosis, i.v., relative to Urapidil = 1.00
Method: Male Sprague-Dawley rats weighing 220-280 g were used, under urethane narcosis (1.78 g/kg, administered intraperitoneally) for the investigation. The blood pressure was measured directly in the carotid artery. The compound was administered intravenously into the jugular vein. The dose (mg/kg) which caused a 20% reduction in blood pressure was determined as the ED 20%. | ^(1) Rat. Urethane narcosis. Intravenous administration. | ^(2) Relative activity.

[2] = Therapeutic range / therapeutic index (quotient of LD 50 and ED 20%); details: in vivo; quotient of LD 50 (mouse i.p.) and ED 20% (rat i.v.)
Source text: The therapeutic range is the quotient of the LD 50 and the ED 20%.

Row | SMILES | LD50 [1] | ED20 (blood pressure) | Hypotensive action R.A. (relative activity, Urapidil = 1.00) (blood pressure) | selectivity ratio [2]
1 | CCOc1ccccc1N1CCN(CC(O)COc2cccc(-c3nnc(C)o3)c2)CC1 (stereo not shown) [Example 12, 1-[3-(5-Methyl-1,3,4-oxadiazol-2-yl)-phenoxy]-3-[4-(2-ethoxyphenyl)-piperazin-1-yl]-propan-2-ol] | 162 mg/kg | 0.0195 mg/kg | 9.69 | 8300
2 | COc1ccccc1N1CCN(CC(O)COc2ccccc2-c2nnc(C)o2)CC1 (stereo not shown) [Example 2] | 56.2 mg/kg | 0.0221 mg/kg | 8.55 | 2540
3 | COc1ccccc1N1CCN(CCCNc2cc(=O)n(C)c(=O)n2C)CC1 [Urapidil, 6-{3-[4-(2-methoxyphenyl)-piperazin-1-yl]-propylamino}-1,3-dimethyluracil, reference compound] | 362 mg/kg | 0.189 mg/kg | 1.00 | 1920
4 | COc1ccccc1N1CCN(CC(O)COc2cccc(-c3nnco3)c2)CC1 (stereo not shown) [Example 7, 1-[3-(1,3,4-Oxadiazol-2-yl)-phenoxy]-3-[4-(2-methoxyphenyl)piperazin-1-yl]-propan-2-ol] | 215 mg/kg | 0.0754 mg/kg | 2.51 | 2850
5 | CCOc1ccccc1N1CCN(CC(O)COc2cccc(-c3nnco3)c2)CC1 (stereo not shown) [Example 9, 1-[3-(1,3,4-Oxadiazol-2-yl)-phenoxy]-3-[4-(2-ethoxyphenyl)-piperazin-1-yl]-propan-2-ol] | 215 mg/kg | 0.0084 mg/kg | 22.50 | 25600
6 | Cc1nnc(-c2cccc(OCC(O)CN3CCN(c4ccccc4Cl)CC3)c2)o1 (stereo not shown) [Example 16, 1-[3-(5-Methyl-1,3,4-oxadiazol-2-yl)-phenoxy]-3-[4-(2-chlorophenyl)-piperazin-1-yl]-propan-2-ol] | 178 mg/kg | 0.0716 mg/kg | 2.64 | 2490
7 | COc1ccccc1N1CCN(CC(O)COc2cccc(-c3nnc(C)o3)c2)CC1 (stereo not shown) [Example 10, 1-[3-(5-Methyl-1,3,4-oxadiazol-2-yl)-phenoxy]-3-[4-(2-methoxyphenyl)-piperazin-1-yl]-propan-2-ol] | 224 mg/kg | 0.0333 mg/kg | 5.68 | 6730
